Numbered stars: 1 amine (or outer) side, 2 acyl side, 3 side chain; on linkers, the order of the positions; unused ones are H or OH. Bridge positions count the residues as written; N and C are the ends. Square brackets hold non-standard residues; d marks the D form. Peptide text beside a SMILES is read from it. * marks the point of attachment. X1 = O=C([C@@H]1CCCN1C[C@@H]1CCCN1[*:1])[*:2]; pGlu = O=C1CC[C@@H](C(=O)O)N1; X2 = Oc1ccc(/C=C/N*)cc1
What was measured:
K562 = experiment: Cytotoxicity against human K562 cells; type: functional; settings: read-out: LC50 (the source's name)
[1] = target: Sodium/potassium-transporting ATPase (Homo sapiens) (UniProt P05023+P14415+P05026+P50993+P54709+P13637+Q13733+P54710)
Description: Inhibition of Na+/K+ ATPase (unknown origin)

A549 = experiment: Cytotoxicity against human A549 cells; type: functional; settings: read-out: LC50 (the source's name)

O=C1CC[C@@H](C(=O)N[C@H]2CSSC[C@@H](C(=O)N/C=C/c3ccc(O)cc3)NC(=O)[C@H](Cc3ccccc3)NC(=O)[C@@H]3CCCN3C[C@@H]3CCCN3C2=O)N1 ([pGlu]C[X1]FC-X2; disulfide 2-5)
CC50 (K562): 6.9 µM | LC50 [1]: 17.8 µM | CC50 (A549): 7.1 µM

COc1cccc2c1C(=O)c1c(O)c3c(c(O)c1C2=O)C[C@@](O)(C(=O)CO)C[C@@H]3O[C@H]1C[C@H](N)[C@H](O)[C@H](C)O1 [DOXORUBICIN]
CC50 (K562): 0.7 µM | CC50 (A549): 0.5 µM

— ChEMBL document CHEMBL2406969, “Gombamide A, a cyclic thiopeptide from the sponge Clathria gombawuiensis” (2013)
